# Literature values, collected in the CATMoS acute toxicity set (Mansouri et al. 2021).
# Assay: rat acute oral toxicity
# Conditions: in vivo
row,Compound,LD50 [mg/kg]
1,CC(Cl)COP(=O)(OCC(C)Cl)OCC(C)Cl (stereo unspecified),1020
2,CCCOC(=O)CC(SP(=O)(OC)OC)C(=O)OCCC (stereo unspecified),360
3,N#CCCOCCOCCO,13400
4,CCC(C)(C)c1ccc2c(c1)C(=O)c1ccccc1C2=O,1600
5,CCN1C(=O)c2ccccc2C1Nc1ccc(OCCN2CCCCC2)cc1 (stereo unspecified),695
6,C#CCN1C(=O)CN=C(c2ccccc2)c2cc([N+](=O)[O-])ccc21,876
7,CCOC(OCC)OCC,7060
8,Cc1cc[nH]n1,710
9,CCOP(=S)(OCC)SCn1nc(Br)ccc1=O,30
10,CC1=C(C(=O)Nc2ccccc2)CCCO1,15000
11,CCCCCCC(C)I (stereo unspecified),8200
12,COP(=O)(OC)Oc1ccc([N+](=O)[O-])cc1,3.27
13,FC(F)(F)c1ccccc1,15000
14,COc1ccc2c(c1)c(CC(=O)Oc1ccccc1C(=O)Oc1ccccc1C(=O)O)c(C)n2C(=O)c1ccc(Cl)cc1,63
15,CC(C)(C)CCCCCCC(=O)O,2070
16,CC(C)(C)NCC(O)COc1cc(Cl)ccc1Cl (stereo unspecified),1300
17,CCCn1c(=O)[nH]c(=O)c2[nH]cnc21,481
18,CCOC(C1=NCCCN1)c1cccc(Cl)c1 (stereo unspecified),695
19,CN(C)C(=S)c1ccc2c(c1)OCO2,79
20,CC(C)NC(=N)NC(=N)Nc1ccc(Cl)cc1,58
21,O=C(Cl)C(Cl)(Cl)Cl,600
22,CCN(CC)C(C)C(=O)c1ccc(NS(C)(=O)=O)cc1 (stereo unspecified),2350
23,O=C(O)c1ccccc1Cl,1140
24,Cl/C(=N/Nc1c(Cl)cc(Cl)cc1Cl)c1ccccc1,718
25,C[Si]1(C)N[Si](C)(C)N[Si](C)(C)N[Si](C)(C)N1,100
26,CC(C)CCCCCCCCCCOCCCN,300

row,Compound,LD50 [mg/kg]
1,CCC(=O)c1ccc2c(c1)N(CCCN(C)C)c1ccccc1S2,500
2,CCOCCOCC(C)O (stereo unspecified),9330
3,C/N=N/Nc1ccc(Cl)cc1,329
4,CC(C)=C[C@H]1[C@@H](C(=O)OCc2coc(Cc3ccccc3)c2)C1(C)C,63
5,COc1c(OP(=S)(Oc2cnn(C)c(=O)c2OC)OC(C)C)cnn(C)c1=O,100
6,O=C(Cc1ccc(-c2ccccc2)cc1)OCCF,6
7,COC(C)=NC#N,432
8,Cc1ccc2ncccc2c1,800
9,Cc1ncc2c(c1O)CSSC2,1110
10,O=C1C=CCCC1,220
11,CC(C)COC(=S)S,1290
12,CC1CC(C)(C)CC(OOC(C)(C)C)(OOC(C)(C)C)C1 (stereo unspecified),12900
13,C=C[C@@]1(C)CC(=O)[C@]2(O)[C@@]3(C)[C@@H](O)CCC(C)(C)[C@@H]3[C@H](O)[C@H](OC(C)=O)[C@@]2(C)O1,2550
14,CCCCN(CCCC)SN(C)C(=O)ON=CC(C)(C)SC,12.5
15,C=CC(C)CCCC(C)(C)O (stereo unspecified),3600
16,CNC(=O)c1cc(OC)n(-c2cccc(Cl)c2)n1,1540
17,C[N+](C)(C)CCO,6640
18,Cc1nn(C)c(OCC(=O)c2ccccc2)c1C(=O)c1ccc(Cl)cc1Cl,1640
19,CN1CCN(C2=Nc3ccccc3Cc3ccccc32)CC1,660
20,CCCCC(CC)C(=O)O[Si](C)(OC(=O)C(CC)CCCC)OC(=O)C(CC)CCCC (stereo unspecified),2280
21,c1ccc(C(c2ccccc2)(c2ccccc2)N2CCOCC2)cc1,83
22,C[N+]1(CC2COC(c3ccccc3)(C3CCCCC3)O2)CCCCC1 (stereo unspecified),494
23,Oc1ccc(Cl)cc1Cc1ccccc1,1700
24,CNC(=O)C(C)SCCSP(=O)(OC)OC (stereo unspecified),64
25,CCCCNC(=O)OCC(C)(CCC)COC(N)=O (stereo unspecified),1040
26,CCOP(=S)(N=C1SCCS1)OCC,14

row,Compound,LD50 [mg/kg]
1,CCCCCCCCCCCCN=C([O-])C[N+](C)(C)Cc1ccccc1,100
2,CC(CC(C#N)(c1ccccc1)C(C)C)N(C)C (stereo unspecified),250
3,CCOC(=O)C(C)O (stereo unspecified),8200
4,Cc1nccnc1C,613
5,CCc1cccc(CC)c1N(CC(=O)O)C(=O)CCl,2300
6,CCCCCC(=O)NP(=O)(OC)SC (stereo unspecified),25
7,COC1=CC=C2[C@H]3Cc4ccc(OC)c5c4[C@@]2(CCN3C)[C@H]1O5,114
8,COC(CN1CCN(CC(O)C(OC)c2ccccc2)CC1)c1ccccc1 (stereo unspecified),435
9,CCCCCCCCCCCCCCSC#N,15000
10,CC(C)c1ccc(C(C)(C)O)cc1,11300
11,CC(C)OC(=O)c1cncc(C(=O)OC(C)C)c1,5230
12,CCC1OC1(C)C (stereo unspecified),3500
13,CCOc1ccc(F)cc1C(CN(C)C)C(C)CC (stereo unspecified),324
14,CC(C)=CC(=O)O,3560
15,Oc1cc(Cl)c(Cl)c(Cl)c1-c1c(Cl)c(Cl)c(Cl)c(Cl)c1OCl,360
16,CCOP(=S)(OCC)Oc1nc(Cl)n(C(C)C)n1,27
17,O=C(CN1CCNCC1)NC1CCCCC1,3900
18,COc1cnc(C)s1,1250
19,CCS(=O)CCOP(=S)(OC)OC (stereo unspecified),600
20,COc1cccc([C@@]2(O)CCCC[C@H]2CN(C)C)c1,228
21,CN1CSC(=S)N(C)C1,320
22,CNC(=O)Oc1cccc2c1OC(C)(C)CC2,3
23,C=C(C)C(=O)OC[Si]12OCCN(CCO1)CCO2,7950
24,CC(=O)C=CC1=C(C)CCCC1(C)C,4590
